Assay results published in US4472286A, “Perfluoroalkyl anion/perfluoroalkyl cation ion pair complexes” (Ciba-Geigy Corporation, priority 1983, dated 1984).

Legend:
[1] = Surface tension of aqueous solutions (ASTM D-1331-56); assay type: physicochemical; conditions: for Surface tension, anionic surfactant: Table 5, 0.01%
[2] = background section; cited from earlier work
[3] = Solubility in water of Rf.Rf complexes and precursor surfactants; assay type: physicochemical
Description: The following Table 1 illustrates how a selected type of an Rf Rf ion-pair complex differs in its properties from the precursor anionic and cationic fluorochemical surfactants. Besides the differences shown in Table 1 (solubility, melting point, surface tension), Rf Rf ion-pair complexes also differ in many other properties from their precursor surfactants.
(§1) The products of Examples 1, 2 and 4 were tested for their respective solubility in distilled water.

[4] = Micellar behavior in distilled water; assay type: physicochemical
Description: as §1

Compound: O=S(=O)(O)C(F)(F)C(F)(F)C(F)(F)C(F)(F)C(F)(F)C(F)(F)C(F)(F)C(F)(F)F [FC-95]
- Surface tension, anionic surfactant alone ([1]; Table 4, at 0.01% in water): 42.2
- Surface tension, anionic surfactant [1]: 42.2

Compound: C[N+](C)(C)CCCNS(=O)(=O)C(F)(F)C(F)(F)C(F)(F)C(F)(F)C(F)(F)C(F)(F)C(F)(F)C(F)(F)F [FC-134]
- Surface tension, cationic surfactant alone ([1]; Table 4, at 0.01% in water): 17.8

Compound: decyltrimethylammonium decyl sulfate
- surface tension of aqueous solutions (literature / general knowledge) [2]: ≥ 22 dynes/cm

Compound: CCN(CC(=O)O)S(=O)(=O)C(F)(F)C(F)(F)C(F)(F)C(F)(F)C(F)(F)C(F)(F)C(F)(F)C(F)(F)F [FC-128]
- Surface tension, anionic surfactant alone ([1]; Table 4, at 0.01% in water): 24.7
- Surface tension, anionic surfactant [1]: 24.7

Compound: 3-(1,1,2,2-tetrahydroperfluorooctylthio)-2-hydroxypropyltrimethylammonium 2-methyl-2-(3-[1,1,2,2-tetrahydroperfluorooctylthio]propanesulfonate [Example 1]
- solubility in distilled water [3]: 5×10^-3 weight %
- surface tension of concentrated solution ([1]; concentrated solution in distilled water): 16.9 dynes/cm
- micellar behavior [4]: None
